Literature values as cited in US6641839B1, “Pharmaceutical formulations for preventing drug tolerance” (Athpharma Limited, priority 1987, dated 2003).

Details: nitrate therapy, widely believed critical level

Compound | minimum critical plasma concentration for therapeutic effect
O=[N+]([O-])O[C@H]1CO[C@H]2[C@@H]1OC[C@H]2O [IS-2-MN, isosorbide-2-mononitrate] | approximately 20 ng/ml
O=[N+]([O-])O[C@@H]1CO[C@H]2[C@@H]1OC[C@@H]2O [IS-5-MN, isosorbide-5-mononitrate] | approximately 100 ng/ml
